From patent US20040142952A1, “Triazoloquinazoline and pyrazolotriazolopyrimidine derivatives, medicinal compositions, adenosine a3 receptor affinity agents, ocular tension lowering agents, preparations for preventing and treating glaucoma and method of lowering ocular tension” (priority 2001, published 2004)

SMILES | melting point [°C]
CCc1nc2ccccc2c2nc(-c3ccc(Cl)cc3)nn12 [Example 68, 2-(4-chlorophenyl)-5-ethyl-1,2,4-triazolo[1,5-c]quinazoline] | 197 to 198
CCc1nc2ccccc2c2nc(-c3ccc(C)cc3)nn12 [Example 69, 5-ethyl-2-(4-methylphenyl)-1,2,4-triazolo[1,5-c]quinazoline] | 147 to 148
CCc1nc2ccccc2c2nc(-c3ccc(OC)cc3)nn12 [Example 71, 5-ethyl-2-(4-methoxyphenyl)-1,2,4-triazolo[1,5-c]quinazoline] | 167.5 to 168
CCOc1ccc(-c2nc3c4ccccc4nc(CC)n3n2)cc1 [Example 72, 2-(4-ethoxyphenyl)-5-ethyl-1,2,4-triazolo[1,5-c]quinazoline] | 153 to 154
CCCc1nc2ccc(Cl)cc2c2nc(-c3ccccc3)nn12 [Example 73, 9-chloro-2-phenyl-5-n-propyl-1,2,4-triazolo[1,5-c]quinazoline] | 140.5 to 141.5
CCCCc1nc2ccc(Cl)cc2c2nc(-c3ccc(F)cc3)nn12 [Example 74, 5-n-butyl-9-chloro-2-(4-fluorophenyl)-1,2,4-triazolo[1,5-c]quinazoline] | 147.5 to 150
CCCCc1nc2ccc(Cl)cc2c2nc(-c3ccc(C)cc3)nn12 [Example 77, 5-n-butyl-9-chloro-2-(4-methylphenyl)-1,2,4-triazolo[1,5-c]quinazoline] | 141 to 143
CCCc1nc2cc(Cl)ccc2c2nc(-c3ccccc3)nn12 [Example 79, 8-chloro-2-phenyl-5-n-propyl-1,2,4-triazolo[1,5-c]quinazoline] | 147 to 149
CCCCc1nc2cc(Cl)ccc2c2nc(-c3ccc(F)cc3)nn12 [Example 80, 5-n-butyl-8-chloro-2-(4-fluorophenyl)-1,2,4-triazolo[1,5-c]quinazoline] | 185.5 to 186.5
CCCCc1nc2cc(Cl)ccc2c2nc(-c3ccc(C)cc3)nn12 [Example 83, 5-n-butyl-8-chloro-2-(4-methylphenyl)-1,2,4-triazolo[1,5-c]quinazoline] | 134 to 134.5
CCCCc1nc2ccc([N+](=O)[O-])cc2c2nc(-c3ccccc3)nn12 [Example 85, 5-n-butyl-9-nitro-2-phenyl-1,2,4-triazolo[1,5-c]quinazoline] | 205.5 to 206
CCc1nc2ccc(Cl)cc2c2nc(-c3ccc(Cl)cc3)nn12 [Example 86, 9-chloro-2-(4-chlorophenyl)-5-ethyl-1,2,4-triazolo[1,5-c]quinazoline] | 213 to 214
CCCCCc1nc2ccccc2c2nc(-c3ccccc3)nn12 [Example 93, 5-n-pentyl-2-phenyl-1,2,4-triazolo[1,5-c]quinazoline] | 118 to 118.5
CCCCCCc1nc2ccccc2c2nc(-c3ccccc3)nn12 [Example 94, 5-n-hexyl-2-phenyl-1,2,4-triazolo[1,5-c]quinazoline] | 92 to 93
CCCCCc1nc2ccccc2c2nc(-c3ccc(F)cc3)nn12 [Example 95, 2-(4-fluorophenyl)-5-n-pentyl-1,2,4-triazolo[1,5-c]quinazoline] | 133.5 to 134
CCCCCc1nc2ccccc2c2nc(-c3ccc(C)cc3)nn12 [Example 101, 2-(4-methylphenyl)-5-n-pentyl-1,2,4-triazolo[1,5-c]quinazoline] | 129.5 to 131
CCCCCc1nc2ccccc2c2nc(-c3ccc(Br)cc3)nn12 [Example 102, 2-(4-bromophenyl)-5-n-pentyl-1,2,4-triazolo[1,5-c]quinazoline] | 133 to 134
CCCCCc1nc2ccccc2c2nc(-c3ccc(Cl)cc3)nn12 [Example 103, 2-(4-chlorophenyl)-5-n-pentyl-1,2,4-triazolo[1,5-c]quinazoline] | 118 to 119.5
CCCCCc1nc2ccccc2c2nc(-c3ccc(OC)cc3)nn12 [Example 105, 2-(4-methoxyphenyl)-5-n-pentyl-1,2,4-triazolo[1,5-c]quinazoline] | 123 to 125
CCCCCc1nc2ccccc2c2nc(-c3ccc(OCC)cc3)nn12 [Example 106, 2-(4-ethoxyphenyl)-5-n-pentyl-1,2,4-triazolo[1,5-c]quinazoline] | 116 to 117
CCCCc1nc2c(cnn2C)c2nc(-c3ccccc3)nn12 [Example 110, 5-n-butyl-7-methyl-2-phenylpyrazolo[4,3-e]-1,2,4-triazolo[1,5-c]pyrimidine] | 172 to 173
CCCCc1nc2nn(C)cc2c2nc(-c3ccccc3)nn12 [Example 111, 5-n-butyl-8-methyl-2-phenylpyrazolo[4,3-e]-1,2,4-triazolo[1,5-c]pyrimidine] | 184 to 185
CCCCc1nc2c(cnn2CCC)c2nc(-c3ccccc3)nn12 [Example 112, 5-n-butyl-2-phenyl-7-n-propylpyrazolo[4,3-e]-1,2,4-triazolo[1,5-c]pyrimidine] | 100.5 to 101.5
CCCCc1nc2nn(CCC)cc2c2nc(-c3ccccc3)nn12 [Example 113, 5-n-butyl-2-phenyl-8-n-propylpyrazolo[4,3-e]-1,2,4-triazolo[1,5-c]pyrimidine] | 107 to 108
CCCCc1nc2c(cnn2CC)c2nc(-c3ccccc3)nn12 [Example 114, 5-n-butyl-7-ethyl-2-phenylpyrazolo[4,3-e]-1,2,4-triazolo[1,5-c]pyrimidine] | 146 to 147
CCCCc1nc2nn(CC)cc2c2nc(-c3ccccc3)nn12 [Example 115, 5-n-butyl-8-ethyl-2-phenylpyrazolo[4,3-e]-1,2,4-triazolo[1,5-c]pyrimidine] | 122.5 to 123
CCCCc1nc2c(cnn2Cc2ccccc2)c2nc(-c3ccccc3)nn12 [Example 116, 7-benzyl-5-n-butyl-2-phenylpyrazolo[4,3-e]-1,2,4-triazolo[1,5-c]pyrimidine] | 108 to 109
CCCCc1nc2nn(Cc3ccccc3)cc2c2nc(-c3ccccc3)nn12 [Example 117, 8-benzyl-5-n-butyl-2-phenylpyrazolo[4,3-e]-1,2,4-triazolo[1,5-c]pyrimidine] | 159 to 160
CCCCc1nc2c(cnn2C)c2nc(-c3ccc(Cl)cc3)nn12 [Example 118, 2-(4-chlorophenyl)-5-n-butyl-7-methylpyrazolo[4,3-e]-1,2,4-triazolo[1,5-c]pyrimidine] | 147.5 to 148.5
CCCCc1nc2nn(C)cc2c2nc(-c3ccc(Cl)cc3)nn12 [Example 119, 2-(4-chlorophenyl)-5-n-butyl-8-methylpyrazolo[4,3-e]-1,2,4-triazolo[1,5-c]pyrimidine] | 203.5 to 205

The next lines start with the values.

melting point [°C] | SMILES
207 to 208 | CCCCCCc1nc2nncc-2c2nc(-c3ccccc3)[nH]n12 [Example 88, 5-n-hexyl-2-phenylpyrazolo[4,3-e]-1,2,4-triazolo[1,5-c]pyrimidine]
187.5 to 188.5 | COC(=O)CCCc1nc2nncc-2c2nc(-c3ccc(OC)cc3)[nH]n12 [Example 90, methyl 4-[2-(4-methoxyphenyl)pyrazolo[4,3-e]-1,2,4-triazolo[1,5-c]pyrimidin-5-yl]butyrate]
194.5 to 196.5 | COC(=O)CCCc1nc2nncc-2c2nc(-c3ccc(Cl)cc3)[nH]n12 [Example 91, methyl 4-[2-(4-chlorophenyl)pyrazolo[4,3-e]-1,2,4-triazolo[1,5-c]pyrimidin-5-yl]butyrate]
196.5 to 197 | COC(=O)CCCc1nc2nncc-2c2nc(-c3ccc(C)cc3)[nH]n12 [Example 92, methyl 4-[2-(4-methylphenyl)pyrazolo[4,3-e]-1,2,4-triazolo[1,5-c]pyrimidin-5-yl]butyrate]
118.5 to 119.5 | COC(=O)CCCc1nc2ccccc2c2nc(-c3ccccc3)nn12 [Example 96, methyl 4-(2-phenyl-1,2,4-triazolo[1,5-c]quinazolin-5-yl)butyrate]
125 to 126 | COC(=O)CCCc1nc2ccccc2c2nc(-c3ccc(Br)cc3)nn12 [Example 97, methyl 4-[2-(4-bromophenyl)-1,2,4-triazolo[1,5-c]quinazolin-5-yl]butyrate]
167 to 168 | COC(=O)CCCc1nc2ccccc2c2nc(-c3ccc(F)cc3)nn12 [Example 98, methyl 4-[2-(4-fluorophenyl)-1,2,4-triazolo[1,5-c]quinazolin-5-yl]butyrate]
128 to 129 | COC(=O)CCCc1nc2ccccc2c2nc(-c3ccc(Cl)cc3)nn12 [Example 99, methyl 4-[2-(4-chlorophenyl)-1,2,4-triazolo[1,5-c]quinazolin-5-yl]butyrate]
120.5 to 121.5 | COC(=O)CCCc1nc2ccccc2c2nc(-c3ccc(C)cc3)nn12 [Example 100, methyl 4-[2-(4-methylphenyl)-1,2,4-triazolo[1,5-c]quinazolin-5-yl]butyrate]
145 to 146.5 | COC(=O)CCCc1nc2ccc(Cl)cc2c2nc(-c3ccc(Cl)cc3)nn12 [Example 104, methyl 4-[9-chloro-2-(4-chlorophenyl)-1,2,4-triazolo[1,5-c]quinazolin-5-yl]butyrate]
156 to 157 | CCCCc1nc2c(cnn2C)c2nc(-c3ccc(C)cc3)nn12 [Example 120, 5-n-butyl-7-methyl-2-(4-methylphenyl)pyrazolo[4,3-e]-1,2,4-triazolo[1,5-c]pyrimidine]
180 to 181 | CCCCc1nc2nn(C)cc2c2nc(-c3ccc(C)cc3)nn12 [Example 121, 5-n-butyl-8-methyl-2-(4-methylphenyl)pyrazolo[4,3-e]-1,2,4-triazolo[1,5-c]pyrimidine]
113 to 113.5 | CCCCc1nc2c(cnn2CCC)c2nc(-c3ccc(C)cc3)nn12 [Example 122, 5-n-butyl-2-(4-methylphenyl)-7-n-propylpyrazolo[4,3-e]-1,2,4-triazolo[1,5-c]pyrimidine]
101.5 to 103.5 | CCCCc1nc2nn(CCC)cc2c2nc(-c3ccc(C)cc3)nn12 [Example 123, 5-n-butyl-2-(4-methylphenyl)-8-n-propylpyrazolo[4,3-e]-1,2,4-triazolo[1,5-c]pyrimidine]
